The conditions of series [1]: pKa printed beside the base in Table 1; cited from earlier work.
The nature of series [2]: Degree of dissolution of dye, visual observation after ultrasonic irradiation. It is filed as physicochemical. The settings on record: 1.0 g dye in 200 ml 1:1 methanol/water, ultrasonic 30 min at 25° C. Set-up: key: good: when it was in a completely dissolved state; poor: when it left some residue; failed: when it was in a hardly dissolved state.
A short description of series [3]: pH value of dye solution measured with a pH-meter. It is filed as physicochemical. The settings on record: 1.0 g dye in 200 ml 1:1 methanol/water.
[4] abbreviates: 1,8-diazabicyclo-7-undecene, 1.0 equivalents to dye.
Setting [5] is: N,N-diisopropylethylamine, 1.0 equivalents to dye.
[6] abbreviates: pyridine, 1.0 equivalents to dye.
Where [7] appears, read: triethanolamine, 1.0 equivalents to dye.
Setting [8] is: triethanolamine, 1.2 equivalents to dye.
Where [9] appears, read: triethylamine, 0.8 equivalents to dye.
Setting [10] is: triethylamine, 1.0 equivalents to dye.
[11] abbreviates: 2,4,6-trimethylpyridine, 1.0 equivalents to dye.
Where [12] appears, read: N-methylmorpholine, 1.0 equivalents to dye.

For the compound `Cc1cc(C)nc(C)c1` [2,4,6-Trimethylpyridine], the “Base (pKa)” value in series [1] was 2,4,6-trimethylpyridine (7.43).
As to `O=C(O)C[n+]1c(C=C2Sc3ccc(Cl)cc3N2CCCS(=O)(=O)[O-])sc2ccc(Cl)cc21` [Dye S-14], the Degree of dissolution entry was “good” in series [2] (setting [4]); “good” in series [2] (setting [5]); “failed” in series [2] (base absent); “failed” in series [2] (setting [6]); “good” in series [2] (setting [7]); “good” in series [2] (setting [8]). The values for the Degree of dissolution result in series [2] (setting [9]) and in series [2] (setting [10]) were “poor” and “good”, respectively. Further, the “pH Value of dye solution” value is recorded as 10.8 in series [3] (setting [4]); 10.1 in series [3] (setting [5]); 6.1 in series [3] (base absent); 5.7 in series [3] (setting [6]); 7.3 in series [3] (setting [7]); 7.4 in series [3] (setting [8]). Also, the results for the “pH Value of dye solution” value in series [3] (setting [9]) and in series [3] (setting [10]) were 6.9 and 9.4, respectively.
For `O=C(O)C[n+]1c(C=C2Sc3ccc(Cl)cc3N2CCCS(=O)(=O)[O-])sc2cc(Cl)sc21` [Dye S-37], the Degree of dissolution result is listed as “good” in series [2] (setting [4]); “good” in series [2] (setting [11]); “good” in series [2] (setting [12]); “failed” in series [2] (base absent); “good” in series [2] (setting [7]); “good” in series [2] (setting [8]). The figures for the Degree of dissolution entry in series [2] (setting [9]) and in series [2] (setting [10]) were “poor” and “good”, respectively. In addition, the “pH Value of dye solution” value came out at 11.0 in series [3] (setting [4]); 7.2 in series [3] (setting [11]); 7.1 in series [3] (setting [12]); 6.2 in series [3] (base absent); 7.4 in series [3] (setting [7]); 7.5 in series [3] (setting [8]). In addition, the results for the “pH Value of dye solution” value in series [3] (setting [9]) and in series [3] (setting [10]) were 7.1 and 9.6, respectively.
On to `CN1CCOCC1` [N-methylmorpholine], for which the “Base (pKa)” value in series [1] is given as “N-methylmorpholine (7.38)”.
As for `O=C(O)C[n+]1c(C=C2Sc3ccc(Br)cc3N2CCCS(=O)(=O)[O-])sc2ccsc21` [Dye S-39], the Degree of dissolution result in series [2] (base absent) is on record as “failed”; in series [2] (setting [7]), “good”; in series [2] (setting [8]) it was “good”; in series [2] (setting [9]) it was “poor”; in series [2] (setting [10]) it was “good”. Moreover, the “pH Value of dye solution” value in series [3] (base absent) is on record as 6.3; in series [3] (setting [7]), 7.5; in series [3] (setting [8]), 7.6; in series [3] (setting [9]) it was 7.4; in series [3] (setting [10]), 9.7.

Source of the values: patent US6824967B2, “Method of preparing dye solution, and methods of producing silver halide emulsion and silver halide photographic material” (Fuji Photo Film Co., Ltd., priority 2002, dated 2004).
